Source: patent publication US12540118B2, “Dendrene amide compound, bactericide and use thereof” (Jiangsu Flag Chemical Industry Co., Ltd., priority 2020, dated 2026)

Assays:
[1] = tested on: Sphaerotheca fuliginea; test: Sphaerotheca fuliginea potting method; assay type: in vivo; conditions: Podosphaera fuliginea; 100 mg/L; read-out: Sphaerotheca fuliginea control rating
Description: The fungicidal activity of the control agents and target compounds are determined. The test and investigation method refers to SOP-SC-1101 sphaerotheca fuliginea potting method in disinfectant rolls written by KANGZHUO and GUBAOGEN in “Standard operation specification for testing biological activity of pesticides”.

[2] = target: T1, succinate dehydrogenase (Sus scrofa, UniProt A5GZW8+D0VWV4+Q007T0); test: Enzyme activity assay, succinate dehydrogenase (DCIP reduction); assay type: biochemical, porcine; conditions: read-out: Inhibitors (10 μM, SQR)
T1 construct: isolated from porcine hearts; from tissue; host or cells: porcine heart
T1 sequence (Q0QF01 43-664 partner): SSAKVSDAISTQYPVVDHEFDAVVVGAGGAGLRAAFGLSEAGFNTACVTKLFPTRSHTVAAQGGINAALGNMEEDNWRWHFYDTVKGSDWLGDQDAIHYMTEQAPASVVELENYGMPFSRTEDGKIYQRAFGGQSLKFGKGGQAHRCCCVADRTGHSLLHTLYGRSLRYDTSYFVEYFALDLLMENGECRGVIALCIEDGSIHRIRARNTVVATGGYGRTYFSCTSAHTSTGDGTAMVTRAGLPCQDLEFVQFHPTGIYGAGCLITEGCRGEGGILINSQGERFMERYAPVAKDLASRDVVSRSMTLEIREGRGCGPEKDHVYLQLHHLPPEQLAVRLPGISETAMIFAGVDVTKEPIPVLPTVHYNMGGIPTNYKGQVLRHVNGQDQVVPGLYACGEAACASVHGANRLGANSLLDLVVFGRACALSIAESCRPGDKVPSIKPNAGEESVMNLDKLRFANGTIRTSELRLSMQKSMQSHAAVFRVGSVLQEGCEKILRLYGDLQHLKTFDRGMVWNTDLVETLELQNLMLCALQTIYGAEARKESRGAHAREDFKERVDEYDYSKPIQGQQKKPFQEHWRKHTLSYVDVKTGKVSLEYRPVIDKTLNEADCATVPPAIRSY
T1 sequence (Q007T0 29-280): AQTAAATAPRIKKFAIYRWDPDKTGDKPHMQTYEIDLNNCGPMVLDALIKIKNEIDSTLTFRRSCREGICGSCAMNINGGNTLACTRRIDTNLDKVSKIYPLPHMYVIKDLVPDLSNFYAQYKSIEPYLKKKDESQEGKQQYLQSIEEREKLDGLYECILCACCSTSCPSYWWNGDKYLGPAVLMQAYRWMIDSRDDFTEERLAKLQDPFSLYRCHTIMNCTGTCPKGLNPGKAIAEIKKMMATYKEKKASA
T1 sequence (D0VWV4 30-169): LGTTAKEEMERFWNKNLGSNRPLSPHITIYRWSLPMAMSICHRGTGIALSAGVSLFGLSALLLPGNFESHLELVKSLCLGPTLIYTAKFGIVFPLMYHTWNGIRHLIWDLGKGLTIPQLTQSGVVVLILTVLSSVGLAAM
T1 sequence (A5GZW8 57-159 limits assumed): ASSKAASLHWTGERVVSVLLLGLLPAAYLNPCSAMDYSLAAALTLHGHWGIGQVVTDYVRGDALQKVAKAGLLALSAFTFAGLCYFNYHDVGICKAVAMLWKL
Procedure, shortened: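 Porcine heart succinate dehydrogenase (2 nM) in 100 mM sodium phosphate pH 7.4, 0.3 mM EDTA, 20 mM sodium succinate and 53 μM DCIP at 23° C with stirring. DCIP reduction followed at 600 nm (ε 21 mM^−1 cm^−1); linear slope minus baseline gives initial rate.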

[3] = tested on: Erysiphe graminis; test: Erysiphe graminis potting method; assay type: in vivo; conditions: Blumeria graminis, read-out: Erysiphe graminis control rating; for pest or weed control at 100 µg/mL: 100 mg/L
Description: The fungicidal activity of the control agents and target compounds are determined. The test and investigation method refers to SOP-SC-1116 Erysiphe graminis potting method in disinfectant rolls written by KANGZHUO and GUBAOGEN in “Standard operation specification for testing biological activity of pesticides”.

Compound | pest or weed control at 100 µg/mL [1] | inhibition at 10 µM [2] | pest or weed control at 100 µg/mL [3] | pest or weed control at 6.25 µg/mL ([3]; 6.25 mg/L) | pest or weed control at 25 µg/mL ([3]; 25 mg/L)
C=C(c1cc(C(C)C)ccc1C)C(C)N(C(=O)c1c(C(F)F)nn(C)c1F)C1CC1 (centres unmarked) [Compound 92] | 80 to 100% | > 90% | 80 to 100% |  | 
CC(C(=C(Cl)Cl)c1ccc(F)cc1Cl)N(C(=O)c1c(C(F)F)nn(C)c1F)C1CC1 (centres unmarked) [Compound 207] | 80 to 100% | > 90% | 80 to 100% |  | 
C=C(c1cccc(Cl)c1Cl)C(C)N(C(=O)c1c(C(F)F)nn(C)c1F)C1CC1 (centres unmarked) [Compound 75] | 80 to 100% | > 90% | 80 to 100% |  | 
Cn1nc(C(F)F)c(C(=O)N(CC(=C(Cl)Cl)c2ccc(F)cc2Cl)C2CC2)c1F [Compound 154] | 80 to 100% | > 90% | 80 to 100% |  | 
C=C(CN(C(=O)c1c(C(F)F)nn(C)c1F)C1CC1)c1cc(C(C)C)ccc1C [Compound 37] | 70 to 80% | > 90% | 80 to 100% | 70 to 80% | 80 to 100%
Cn1nc(C(F)F)c(C(=O)N(CC(=C(Cl)Cl)c2cccc(F)c2)C2CC2)c1F [Compound 124] | 80 to 100% | > 90% | 80 to 100% |  | 
Cn1nc(C(F)F)c(C(=O)N(CC(=C(Cl)Cl)c2ccc(Cl)cc2F)C2CC2)c1F [Compound 153] | 80 to 100% | > 90% | 80 to 100% |  | 
Cn1nc(C(F)F)c(C(=O)N(CC(=C(Cl)Cl)c2cc(F)ccc2F)C2CC2)c1F [Compound 127] | 80 to 100% | > 90% | 80 to 100% |  | 
C=C(c1cc(F)ccc1F)C(C)N(C(=O)c1c(C(F)F)nn(C)c1F)C1CC1 (centres unmarked) [Compound 77] | 80 to 100% | > 90% | 80 to 100% |  | 
C=C(CN(C(=O)c1c(C(F)F)nn(C)c1F)C1CC1)c1cc(C(F)(F)F)ccc1Cl [Compound 45] | 80 to 100% | > 90% | 80 to 100% |  | 
C=C(c1ccc(S(C)(=O)=O)cc1Cl)C(C)N(C(=O)c1c(C(F)F)nn(C)c1F)C1CC1 (centres unmarked) [Compound 103] | 80 to 100% | > 90% | 80 to 100% |  | 
Cn1nc(C(F)F)c(C(=O)N(CC(=C(Cl)Cl)c2ccccc2S(C)(=O)=O)C2CC2)c1F [Compound 161] | 80 to 100% | > 90% | 80 to 100% |  | 
CC(C(=C(Cl)Cl)c1cccc(F)c1)N(C(=O)c1c(C(F)F)nn(C)c1F)C1CC1 (centres unmarked) [Compound 177] | 80 to 100% | > 90% | 80 to 100% |  | 
C=C(c1ccc(C(C)C)cc1C)C(C)N(C(=O)c1c(C(F)F)nn(C)c1F)C1CC1 (centres unmarked) [Compound 96] | 80 to 100% | > 90% | 80 to 100% |  | 
C=C(c1ccc(Cl)cc1)C(C)N(C(=O)c1c(C(F)F)nn(C)c1F)C1CC1 (centres unmarked) [Compound 59] | 80 to 100% | > 90% | 80 to 100% |  | 
CC(C(=C(Cl)Cl)c1ccc(F)cc1F)N(C(=O)c1c(C(F)F)nn(C)c1F)C1CC1 (centres unmarked) [Compound 179] | 80 to 100% | > 90% | 80 to 100% |  | 
C=C(c1cccc(C)c1)C(C)N(C(=O)c1c(C(F)F)nn(C)c1F)C1CC1 (centres unmarked) [Compound 70] | 80 to 100% | > 90% | 80 to 100% |  | 
Cc1ccc(C(C)(C)C)cc1C(CN(C(=O)c1c(C(F)F)nn(C)c1F)C1CC1)=C(Cl)Cl [Compound 147] | 80 to 100% | > 90% | 80 to 100% |  | 
Cn1nc(C(F)F)c(C(=O)N(CC(=C(Cl)Cl)c2ccc(C(F)(F)F)cc2Cl)C2CC2)c1F [Compound 158] | 80 to 100% | > 90% | 80 to 100% |  | 
